Data set [1] can be described thus: Solubility in buffers at pH 1.0, 1.2, 4.5, 6.8 and 7.5. To be noted: for Solubility pH = 1.0 (class) / Solubility pH = 1.0 (volume of solvent required for dissolution per gram of solute): buffer pH 1.0, KCl 0.2 M / HCl 0.2 M; for Solubility pH = 1.2 (class) / Solubility pH = 1.2 (volume of solvent required for dissolution per gram of solute): buffer pH 1.2, KCl 0.2 M / HCl 0.2 M; for Solubility pH = 4.5 (class) / Solubility pH = 4.5 (volume of solvent required for dissolution per gram of solute): buffer pH 4.5, potassium biphthalate 0.2 M / HCl 0.2 M; for Solubility pH = 6.8 (class) / Solubility pH = 6.8 (volume of solvent required for dissolution per gram of solute): buffer pH 6.8, monobasic potassium phosphate 0.2 M / NaOH 0.2 M; for Solubility pH = 7.5 (class) / Solubility pH = 7.5 (volume of solvent required for dissolution per gram of solute): buffer pH 7.5, monobasic potassium phosphate 0.2 M / NaOH 0.2 M. The format is physicochemical. As to the method: The buffers at pH 1.0 and 1.2 were prepared with aqueous solutions of potassium chloride 0.2M and hydrochloric acid 0.2 M, the buffers at pH 6.8 and 7.5 were prepared with aqueous solutions of monobasic potassium phosphate 0.2 M and sodium hydroxide 0.2 M and the buffer at pH 4.5 with aqueous solutions of potassium biphthalate 0.2 M and hydrochloric acid 0.2 M, according to pharmacopoeia USP31.
The statement freely soluble means that the volume of solvent (required for dissolution) in ml per gram of solute is of from 1 to 10. The statement soluble means that the volume of solvent (required for dissolution) in ml per gram of solute is of from […]. The statement sparingly soluble means that the volume of solvent (required for dissolution) in ml per gram of solute is of from 30 to 100. The statement slightly soluble means that the volume of solvent (required for dissolution) in ml per gram of solute is of from 100 to 1000. The statement very slightly soluble means that the volume of solvent (required for dissolution) in ml per gram of solute is from 1000 to 10 000.

Data set [2] can be described thus: Color classification according to the Munsell color system. The format is physicochemical. Particulars: for Munsell Classification: Munsell color system. The source says:
The table below presents the color classification of the doxycycline salts according to the Munsell color system.

Data set [3] is described as follows: pH of aqueous solutions of the salts. Particulars: for pH: aqueous solution, concentration approximately 10^-3 M.

`CCO.C[C@H]1c2cccc(O)c2C(=O)C2=C(O)[C@]3(O)C(=O)C(C(N)=O)=C(O)[C@@H](N(C)C)[C@@H]3[C@@H](O)[C@@H]21.C[C@H]1c2cccc(O)c2C(=O)C2=C(O)[C@]3(O)C(=O)C(C(N)=O)=C(O)[C@@H](N(C)C)[C@@H]3[C@@H](O)[C@@H]21.Cl.Cl.O` [Doxycycline Hyclate, reference compound]: in data set [1], the “Solubility pH = 1.0 (class)” value is “Soluble (The statement soluble means that the volume of solvent (required for dissolution) in ml per gram of solute is of from 1 to 30)”, the “Solubility pH = 1.0 (volume of solvent required for dissolution per gram of solute)” value stood at 16 ml/g, the “Solubility pH = 1.2 (class)” value was “Freely soluble (The statement freely soluble means that the volume of solvent (required for dissolution) in ml per gram of solute is of from 1 to 10)” and the “Solubility pH = 1.2 (volume of solvent required for dissolution per gram of solute)” value is recorded as 3 ml/g. In addition, in data set [1], the “Solubility pH = 4.5 (class)” value is given as “Sparingly (The statement sparingly soluble means that the volume of solvent (required for dissolution) in ml per gram of solute is of from 30 to 100)”, the “Solubility pH = 4.5 (volume of solvent required for dissolution per gram of solute)” value is listed as 53 ml/g, the “Solubility pH = 6.8 (class)” value is “Freely soluble (The statement freely soluble means that the volume of solvent (required for dissolution) in ml per gram of solute is of from 1 to 10)” and the “Solubility pH = 6.8 (volume of solvent required for dissolution per gram of solute)” value came to 2 ml/g. Further, in data set [1], the “Solubility pH = 7.5 (class)” value is reported as “Sparingly (The statement sparingly soluble means that the volume of solvent (required for dissolution) in ml per gram of solute is of from 30 to 100)” and the “Solubility pH = 7.5 (volume of solvent required for dissolution per gram of solute)” value stood at 100 ml/g. In addition, in data set [2], the “Color Description” value was “Yellowish” and the “Munsell Classification” value amounted to 10Y 9/3.5 NN. The “Munsell Classification” value in data set [2] (listed as doxycycline hyclate) is given as “yellowish 10Y”.

Regarding `CC1c2cccc(O)c2C(O)=C2C(=O)C3(O)C(O)=C(C(N)=O)C(=O)C(N(C)C)C3C(O)C21.O=C(O)C=CC(=O)O` (stereo not shown) [Doxycycline Maleate], in data set [1], the “Solubility pH = 1.0 (class)” value is listed as “Soluble (The statement soluble means that the volume of solvent (required for dissolution) in ml per gram of solute is of from 1 to 30)”, the “Solubility pH = 1.0 (volume of solvent required for dissolution per gram of solute)” value worked out at 13 ml/g, the “Solubility pH = 1.2 (class)” value is “Soluble (The statement soluble means that the volume of solvent (required for dissolution) in ml per gram of solute is of from 1 to 30)” and the “Solubility pH = 1.2 (volume of solvent required for dissolution per gram of solute)” value came to 13 ml/g. In data set [1], the “Solubility pH = 4.5 (class)” value was “Sparingly (The statement sparingly soluble means that the volume of solvent (required for dissolution) in ml per gram of solute is of from 30 to 100)”, the “Solubility pH = 4.5 (volume of solvent required for dissolution per gram of solute)” value came to 63 ml/g, the “Solubility pH = 6.8 (class)” value is reported as “Sparingly (The statement sparingly soluble means that the volume of solvent (required for dissolution) in ml per gram of solute is of from 30 to 100)” and the “Solubility pH = 6.8 (volume of solvent required for dissolution per gram of solute)” value is recorded as 83 ml/g. In data set [1], the “Solubility pH = 7.5 (class)” value was “Sparingly (The statement sparingly soluble means that the volume of solvent (required for dissolution) in ml per gram of solute is of from 30 to 100)” and the “Solubility pH = 7.5 (volume of solvent required for dissolution per gram of solute)” value was determined as 77 ml/g. The “Solubility compared with doxycycline monohydrate” value in data set [1] (pH 4.5, pH 6.8 and pH 7.5) is reported as “higher than that of the monohydrate”. For the same compound, in data set [2], the “Color Description” value is listed as “Off-white” and the “Munsell Classification” value is listed as 9.25/10Y/2.5 NN. In addition, in data set [3], the pH was found to be 3.3.

Regarding `C[C@H]1c2cccc(O)c2C(=O)C2=C(O)[C@]3(O)C(=O)C(C(N)=O)=C(O)[C@@H](N(C)C)[C@@H]3[C@@H](O)[C@@H]21` [Doxycycline Monohydrate, reference compound], in data set [1], the “Solubility pH = 1.0 (class)” value is reported as “Soluble (The statement soluble means that the volume of solvent (required for dissolution) in ml per gram of solute is of from 1 to 30)”, the “Solubility pH = 1.0 (volume of solvent required for dissolution per gram of solute)” value is 19 ml/g, the “Solubility pH = 1.2 (class)” value was “Soluble (The statement soluble means that the volume of solvent (required for dissolution) in ml per gram of solute is of from 1 to 30)” and the “Solubility pH = 1.2 (volume of solvent required for dissolution per gram of solute)” value was determined as 25 ml/g. In data set [1], the “Solubility pH = 4.5 (class)” value is listed as “Slightly (The statement slightly soluble means that the volume of solvent (required for dissolution) in ml per gram of solute is of from 100 to 1000)”, the “Solubility pH = 4.5 (volume of solvent required for dissolution per gram of solute)” value came to 1000 ml/g, the “Solubility pH = 6.8 (class)” value was “Slightly (The statement slightly soluble means that the volume of solvent (required for dissolution) in ml per gram of solute is of from 100 to 1000)” and the “Solubility pH = 6.8 (volume of solvent required for dissolution per gram of solute)” value is reported as 333 ml/g. For the same compound, in data set [1], the “Solubility pH = 7.5 (class)” value was “Slightly (The statement slightly soluble means that the volume of solvent (required for dissolution) in ml per gram of solute is of from 100 to 1000)” and the “Solubility pH = 7.5 (volume of solvent required for dissolution per gram of solute)” value was determined as 1000 ml/g. Besides, in data set [2], the “Color Description” value is “Yellowish” and the “Munsell Classification” value came to 10Y/9/3.5 NN.

`C[C@H]1c2cccc(O)c2C(O)=C2C(=O)[C@]3(O)C(O)=C(C(N)=O)C(=O)[C@@H](N(C)C)[C@@H]3[C@@H](O)[C@@H]21.O=C(O)C(=O)O` [Doxycycline Oxalate]: in data set [1], the “Solubility pH = 1.0 (class)” value is listed as “Slightly (The statement slightly soluble means that the volume of solvent (required for dissolution) in ml per gram of solute is of from 100 to 1000)”, the “Solubility pH = 1.0 (volume of solvent required for dissolution per gram of solute)” value is 500 ml/g, the “Solubility pH = 1.2 (class)” value is listed as “Very Slightly (The statement very slightly soluble means that the volume of solvent (required for dissolution) in ml per gram of solute is from 1000 to 10 000)” and the “Solubility pH = 1.2 (volume of solvent required for dissolution per gram of solute)” value is 1900 ml/g. In data set [1], the “Solubility pH = 4.5 (class)” value is listed as “Slightly (The statement slightly soluble means that the volume of solvent (required for dissolution) in ml per gram of solute is of from 100 to 1000)”, the “Solubility pH = 4.5 (volume of solvent required for dissolution per gram of solute)” value was 500 ml/g, the “Solubility pH = 6.8 (class)” value is given as “Slightly (The statement slightly soluble means that the volume of solvent (required for dissolution) in ml per gram of solute is of from 100 to 1000)” and the “Solubility pH = 6.8 (volume of solvent required for dissolution per gram of solute)” value is 125 ml/g. In data set [1], the “Solubility pH = 7.5 (class)” value was “Slightly (The statement slightly soluble means that the volume of solvent (required for dissolution) in ml per gram of solute is of from 100 to 1000)” and the “Solubility pH = 7.5 (volume of solvent required for dissolution per gram of solute)” value turned out to be 143 ml/g. Further, the “Solubility compared with the hydrochloride / hyclate” value in data set [1] (pH 1.0, 1.2, 4.5, 6.8 and 7.5 (all pH values tested)) is recorded as “lower than that of the hyclate”. For the same compound, the “Solubility compared with doxycycline monohydrate” value in data set [1] (pH 1.0 and pH 1.2) is “lower than that of the monohydrate”. Also, in data set [1] (pH 4.5, pH 6.8 and pH 7.5), the “Solubility compared with doxycycline monohydrate” value was “similar”. For the same compound, in data set [2], the “Color Description” value is “Yellowish” and the “Munsell Classification” value was determined as 5Y/9/4 NN. Moreover, the pH in data set [3] amounted to 3.2.

As to `CN(C)c1ccc(O)c2c1C[C@H]1C[C@H]3[C@H](N(C)C)C(O)=C(C(N)=O)C(=O)[C@@]3(O)C(O)=C1C2=O` [Minocycline Base, 7-dimethylamino-6-demethyl-6-deoxytetracycline, reference compound], in data set [2], the “Color Description” value is reported as “Yellowish” and the “Munsell Classification” value is listed as 7.5Y/9/10 NN. In addition, the pH in data set [3] is recorded as 6.8.

Regarding `CN(C)C1C(O)=C(C(N)=O)C(=O)C2(O)C(O)=C3C(=O)c4c(O)cccc4C(C)(O)C3CC12.O=C(O)C(=O)O` (stereo not shown) [Tetracycline Oxalate], in data set [2], the “Color Description” value is “Yellowish” and the “Munsell Classification” value is on record as 10Y/9/8 NN. Further, the pH in data set [3] was determined as 3.2. Moreover, the “pH compared with the marketed form” value in data set [3] (comparison of the values of the pH table) is recorded as “less acidic than the pH of tetracycline”.

With `CN(C)[C@@H]1C(O)=C(C(N)=O)C(=O)[C@@]2(O)C(O)=C3C(=O)c4c(O)cccc4[C@@](C)(O)[C@H]3C[C@@H]12` [Tetracycline], in data set [2], the “Color Description” value was “Yellowish” and the “Munsell Classification” value was 5Y/9/4 NN.

Consider Demeclocycline Oxalate, for which, in data set [2], the “Color Description” value is “Yellowish” and the “Munsell Classification” value is given as 5Y/9/2.5 NN. Moreover, the pH in data set [3] worked out at 3.3.

Consider Minocycline Oxalate, for which, in data set [2], the “Color Description” value was “Yellowish” and the “Munsell Classification” value is 10/Y/9/3.5 NN. In addition, the pH in data set [3] was found to be 3.0.
